Values quoted from earlier work as cited in patent US7498301B2, “Composition containing dipeptide of histidine and alanine for reducing uric acid and method for reducing uric acid using the dipeptide” (Lytone Enterprise, Inc., priority 2003, dated 2009).

Columns and labels:
[1] = low pH (<3.0)
[2] = test system: peptidase and proteases excreted from pancreas or other digestive organs

Compound: NCCC(=O)N[C@@H](Cc1cnc[nH]1)C(=O)O [carnosine, β-alanyl-L-histidine]
- Stability under low pH [1]: remain intact
- Digestion by peptidase and proteases [2]: resist against digestion
